According to patent US10172869B2, “Progesterone receptor modulators for use in the therapy of uterine fibroids” (PregLem SA, priority 2013, dated 2019):

Assays:
Type in all cases: in vivo, human
[1] = Example 2 long-term extension study: safety assessments (TEAEs, SAEs); conditions: intermittent repeated administration schedule
From the text: (§1) Long-Term Extension of a Multicenter, Phase III Study to Investigate the Efficacy and Safety of 3-Months of Treatment with UPA Followed by 10 Days of Treatment with NETA or Placebo in Subjects with Myomas and Heavy Uterine Bleeding
(§2) The study consisted of three periods of 3 months open-label UPA treatment, each followed by 10 days of double-blind treatment with NETA or placebo and then a drug-free period. Subjects were randomly assigned to a NETA or matching placebo arm with a 1:1 ratio.
(§3) In the study of Example 1 and for each present study courses, UPA 10 mg was orally administered once daily for a period of 90 days, followed by 10 mg NETA or matching placebo once daily for a period of 10 days. The first treatment course in the present study consisted of 90 days UPA 10 mg treatment followed by 10 days of double-blind treatment (same as in Example 1 study) started between the first and fourth day of menstruation (inclusive) following visit after the end of treatment, or one month later if uterine sparing surgery had been performed and myomas were still present. The second and third treatment courses of the present study started on the first day of menstruation following visits after ends of each treatment courses, respectively.
(§4) Parameters assessed are the same as it was described in Example 1.

endometrium [2] = assay: Example 2 long-term extension study: endometrium thickness and endometrium biopsy
From the text: as §1, §2, §3, §4

[3] = test system: myomas and heavy uterine bleeding; assay: Example 2 long-term extension study: uterine bleeding, amenorrhea and return of menstruation (PBAC); conditions: for subjects with more than 9 days of any level of bleeding (heavy bleeding, bleeding or spotting) / percentage of subjects in amenorrhea: ITT Population; for mean time to amenorrhea / median time to amenorrhea: from first dose of UPA in the course
From the text: as §1, §2
In study described in Example 1, 251 subjects were screened at 21 sites and 209 subjects started treatment with UPA of which 202 attended the end of UPA treatment visit. Of those that completed study of Example 1 (190 subjects), 132 subjects from 19 sites opted to continue in to the extension study.
as §3, §4

endometrium [4] = assay: Example 1 Phase III study: endometrial thickness
Method: (§5) Multicenter, Phase III Study to Investigate the Efficacy and Safety of 3-Months of Treatment with UPA Followed by 10 Days of Treatment with NETA or Placebo
(§6) All patients received a 3-month treatment course of UPA 10 mg once-daily followed by randomized oral NETA 10 mg once-daily or matching placebo for 10 days. UPA treatment was started during the first 4 days of menstruation. NETA or placebo was taken daily for the first 10 days following the cessation of UPA. The schedule incorporated the potential for women to enter an extension study involving repeated intermittent courses of UPA 10 mg.
(§7) The safety endpoints included the number and proportion of patients experiencing treatment-emergent adverse events (TEAEs), including clinically significant changes in vital signs, physical examination, gynecological or breast examination, electrocardiogram (ECG), ovarian ultrasound, changes from baseline in endometrial thickness and clinically significant changes in endometrium biopsy. Other safety endpoints were change from baseline in hematology, coagulation, biochemistry, lipids, adrenocorticotropic hormone (ACTH), thyroid stimulating hormone (TSH) and prolactin, as well as serum levels of estradiol (E2).

endometrium [5] = assay: Example 1 Phase III study: endometrial histology (biopsy); conditions: for percentage of non-physiological endometrial features: after treatment, 10.9% at screening
Method: as §5, §6
(§8) In the clinical trial the effect of treatment of uterine fibroids have been assessed by means of parameters such as uterine bleeding using the pictorial blood-loss assessment chart (PBAC), condition of the uterus using transvaginal ultrasound (TVUS) and endometrial biopsy, endometrial histology using endometrial biopsy and pain using the Short-Form McGill Pain Questionnaire (SF-MPQ and quality of life using the Uterine Fibroid Symptom and Health-Related Quality of Life (UFS-QoL) questionnaire.
as §7
(§9) Exploratory endpoints included assessment of the strength of the first menstruation after UPA treatment (using PBAC), time to return of menstruation following treatment end, and frequency of post-treatment PAEC observed in the endometrial biopsy after return of menstruation.

uterine fibroids [6] = assay: Example 1 Phase III study: uterine bleeding, amenorrhea and return of menstruation (PBAC)
Method: as §5, §6, §8
(§10) The efficacy end points were: percentage of amenorrheic patients at the end of UPA treatment; change from baseline in the volume of the three largest myomas to end of UPA treatment and 2 weeks after menstruation following end of NETA/placebo treatment; and change from baseline in pain and QoL to end of UPA treatment.
as §9

[7] = Example 1 Phase III study: adverse events (TEAEs, SAEs)
Method: as §5, §6, §7

[8] = test system: myomas and heavy uterine bleeding; assay: Example 2 long-term extension study: surgery undertaken compared to planned; conditions: by the end of study; ITT population of 132, surgery initially planned for 66 (50%)
From the text: as §1, §2, §3

uterine fibroids [9] = assay: Example 1 Phase III study: volume of the three largest fibroids (TVUS)
Method: as §5, §6, §8, §10

myomas = assay: Example 2 long-term extension study: volume of the 3 largest myomas and uterine volume
From the text: as §1, §2, §3, §4

[10] = Example 1 Phase III study: serum hormones and biochemistry (E2, ACTH, TSH, prolactin, transaminases)
Method: as §5, §6, §7

[11] = test system: myomas and heavy uterine bleeding; assay: Example 2 long-term extension study: pain (SF-MPQ) and quality of life (UFS-QoL, EQ-5D)
From the text: as §1, §2, §3, §4

uterine fibroids [12] = assay: Example 1 Phase III study: pain (SF-MPQ, VAS) and quality of life (UFS-QoL); conditions: for pain assessed by the VAS, median change in score: median baseline 38
Method: as §5, §6, §8, §10

[13] = follow-up visit, approximately 2 weeks after the third menstruation following 4th treatment course
[14] = from day 10 until end of treatment
[15] = from first day of menstruation on, or just prior to, first dose of UPA

C#C[C@]1(OC(C)=O)CC[C@H]2[C@@H]3CCC4=CC(=O)CC[C@@H]4[C@H]3CC[C@@]21C [NETA, norethindrone (norethisterone) acetate]
safety and tolerability assessment [1]: did not raise any safety concerns
endometrium thickness, comparison of the 2 treatment groups (endometrium [2]; after each treatment course): placebo group were higher compared to those for the NETA group
heaviness of bleeding as measured by the PBAC score (days 1-8) ([3]; first menstruation after each treatment course): decrease after each subsequent treatment course
median times to return of menstruation following discontinuation of UPA ([3]; treatment courses 1-4, NETA group compared to placebo group, p<0.001): significantly shorter
percentage of women with endometrial thickness >16 mm (endometrium [4]; after NETA double-blind treatment, 0% at screening): 3.5%
extensive cyst formation (one of the features of PAEC) (endometrium [5]; after NETA treatment): 2.4%
percentage of non-physiological endometrial features (endometrium [5]): 22.6%
endometrial polyp (endometrium [5]; biopsy 12 weeks after UPA treatment): one benign endometrial polyp
cases of PAEC (endometrium [5]; biopsy 12 weeks after UPA treatment, subgroup): no case of PAEC
median return to menstruation following end of UPA treatment (uterine fibroids [6]; NETA 10 mg once-daily for 10 days after UPA, p≤0.001 vs placebo): 14.0 days
median change in PBAC score (uterine fibroids [6]; NETA treatment group, first menstruation following treatment completion compared to baseline, p=0.012 vs placebo): −122
women reporting events ([7]; double-blind treatment phase, 10 days after UPA): 11.2%
women with TEAEs ([7]; post-treatment phase): 26.5%

CC(=O)O[C@]1(C(C)=O)CC[C@H]2[C@@H]3CCC4=CC(=O)CCC4=C3[C@@H](c3ccc(N(C)C)cc3)C[C@@]21C [UPA, 17α-acetoxy-11β[4-N,N-dimethylamino-phenyl)-19-norpregna-4,9-diene-3,20-dione]
subjects for whom surgery was not performed [8]: 94.7%
median change in the combined volume of the largest three fibroids (uterine fibroids [9]; after UPA treatment and return of menstruation): −45.8%
median change in the combined volume of the largest three fibroids (uterine fibroids [9]; between baseline and end of UPA treatment): −45.1%
women with a ≥25% reduction in the volume of the three largest fibroids (uterine fibroids [9]; in vivo): 74.7%
safety and tolerability assessment [1]: well tolerated
uterine volume measured by US (myomas; during the study, maintained after end of treatment): decreased during the study
total volume of the 3 largest myomas, mean percent change from screening (myomas; end of 4th treatment course): −53.53%
total volume of the 3 largest myomas, median percent change from screening (myomas; end of 4th treatment course): −72.08%
total volume of the 3 largest myomas, mean percent change from screening (myomas; [13]): −33.68%
total volume of the 3 largest myomas, median percent change from screening (myomas; [13]): −58.84%
endometrium biopsy diagnosis by consensus review (endometrium [2]; all biopsy samples, 3 independent pathologists): diagnosis of benign endometrium
incidence of non-physiological changes in endometrium biopsy samples (endometrium [2]; epithelial changes, unusual vascular changes, extensive cyst formation): highest in samples taken following first treatment course and second treatment course
endometrium thickness (endometrium [2]; following a single treatment course of 3 months UPA): an increase in endometrium thickness was observed
frequency of PAEC (endometrium [2]; long-term repeated administration): independent of length of treatment
subjects with more than 9 days of any level of bleeding (heavy bleeding, bleeding or spotting) ([3]; days 9-90, treatment course 1): 15.9%
subjects with more than 9 days of any level of bleeding (heavy bleeding, bleeding or spotting) ([3]; days 9-90, treatment course 2): 6.3%
subjects with more than 9 days of any level of bleeding (heavy bleeding, bleeding or spotting) ([3]; days 9-90, treatment course 3): 3.4%
subjects with more than 9 days of any level of bleeding (heavy bleeding, bleeding or spotting) ([3]; days 9-90, treatment course 4): 3.9%
percentage of subjects in amenorrhea ([3]; end of treatment course 1): 79.5%
percentage of subjects in amenorrhea ([3]; end of treatment course 2): 88.5%
percentage of subjects in amenorrhea ([3]; end of treatment course 3): 88.2%
percentage of subjects in amenorrhea ([3]; end of treatment course 4): 89.7%
return to menstruation ([3]; following the end of each treatment course): al but 4 subjects with available data returned to menstruation
mean time to amenorrhea ([3]; treatment course 1): 9.4 days
median time to amenorrhea ([3]; treatment course 1): 4.0 days
mean time to amenorrhea ([3]; treatment course 2): 3.3 days
median time to amenorrhea ([3]; treatment course 2): 2.0 days
mean time to amenorrhea ([3]; treatment course 3): 5.3 days
median time to amenorrhea ([3]; treatment course 3): 3.0 days
mean time to amenorrhea ([3]; treatment course 4): 4.2 days
median time to amenorrhea ([3]; treatment course 4): 3.0 days
percentage of women with endometrial thickness >16 mm (endometrium [4]; end of UPA treatment, 1.5% at screening): 9.1%
patients with endometrial thickness >16 mm (endometrium [4]; three months later): none of the patients assessed had a thickness >16 mm
percentage of non-physiological endometrial features (endometrium [5]): 25.6%
endometrial histology (endometrium [5]; biopsy 12 weeks after UPA treatment (n=38)): benign endometrial histology in all biopsies
endometrial histology (endometrium [5]; following double-blind treatment): benign in all cases
mean E2 level ([10]; Visit 5, during UPA treatment, screening mean 149.9 pg/mL): 81.6 pg/mL
median E2 level ([10]; Visit 5, during UPA treatment, screening median 120.0 pg/mL): 55.0 pg/mL
changes in ACTH, TSH, or prolactin ([10]; during UPA treatment): No significant changes
hepatic transaminases ([10]; small number of patients, all resolved during continued treatment and/or by follow-up visit): marginal increase
percentage of amenorrheic patients (uterine fibroids [6]; end of 3-month UPA 10 mg once-daily treatment): 78.5%
overall total median change in PBAC score (uterine fibroids [6]; first menstruation following treatment completion compared to baseline, median baseline score 216): −91.5
patients on any particular day reporting any bleeding (uterine fibroids [6]; [14]): < 5%
patients on any particular day reporting heavy bleeding (uterine fibroids [6]; [14]): < 2%
mean time to amenorrhea (uterine fibroids [6]; [15]): 10.6 days
median time to amenorrhea (uterine fibroids [6]; [15]): 5.0 days
SAE during the UPA treatment phase ([7]; UPA treatment phase): No SAE occurred
serious adverse events (SAEs) during the study ([7]; all post-treatment, considered not related to study medication): Three serious adverse events (SAEs) were reported for two patients
TEAE breast discomfort/tenderness, women ([7]; during UPA treatment): 3.8%
TEAE fatigue, women ([7]; during UPA treatment): 4.3%
TEAE headache, women ([7]; during UPA treatment): 16.3%
TEAE hot flushes, women ([7]; during UPA treatment): 4.8%
TEAE lower abdominal pain, women ([7]; during UPA treatment): 3.3%
TEAE nasopharyngitis, women ([7]; during UPA treatment): 6.7%
TEAE nausea, women ([7]; during UPA treatment): 3.8%
TEAE pelvic pain, women ([7]; during UPA treatment): 3.8%
TEAE vertigo, women ([7]; during UPA treatment): 3.8%
TEAEs classified as severe ([7]; during UPA treatment): 3.8%
women with TEAEs ([7]; during UPA treatment): 57.4%
women with TEAEs considered to be UPA related ([7]; during UPA treatment): 29.7%
patient-reported pain, 3 SF-MPQ Parts ([11]; all visits): improvement from baseline at all visits
UFS-QoL average symptom severity score ([11]; compared to baseline): improvement (decrease) from baseline
UFS-QoL HRQL total score ([11]; on average, compared to baseline): improvement (increase)
ED-5D questionnaire, pain/discomfort and anxiety/depression dimensions ([11]; throughout the study): improvement was sustained throughout the study
pain, median change from baseline score (uterine fibroids [12]; Week 5): −5.0
pain assessed by the VAS, median change in score (uterine fibroids [12]; Week 5): −21
pain, median change from baseline score (uterine fibroids [12]; Week 9): −6.0
pain assessed by the VAS, median change in score (uterine fibroids [12]; Week 9): −26
QoL symptom severity, median change from baseline score (uterine fibroids [12]; after UPA treatment): −34.4
health-related QoL (HRQL) total score, median increase compared to baseline (uterine fibroids [12]; after UPA treatment): 28.5
pain, median change from baseline score (uterine fibroids [12]; end of UPA treatment): −6.0
pain assessed by the VAS, median change in score (uterine fibroids [12]; end of UPA treatment): −25
